Laboratory results as given in patent US9926318B2, “Tetracyclic autotaxin inhibitors” (PharmAkea, Inc., priority 2013, dated 2018).

Target: human autotaxin (ATX) (Homo sapiens (Human), UniProt Q13822)
Assay: Human autotaxin assay (choline release from LPC, Hep3B conditioned media)
Format: biochemical
Details: concentrated conditioned media from Hep3B cells, LPC substrate
Description: ATX activity is assayed in concentrated conditioned media from Hep3B human hepatocellular carcinoma cells by measuring the amount of choline released from the substrate, lysophosphatidylcholine (LPC) as it is cleaved to LPA. Conditioned media is collected from confluent Hep3B cells and concentrated 20-fold using Centriprep-30 filter devices (Millipore). […] 100 μl of a color mix containing 4.5 mM 4-aminoantipyrine, 2.7 mM N-ethyl-N-(2-hydroxy-3-sulfopropyl)-m-toluidine, 21 units/ml horseradish peroxidase and 3 units/ml choline oxidase in 50 mM Tris, pH 8, 4.5 mM MgCl2 is added and the incubation continued for 15 minutes at room temperature before reading the absorbance at 555 nm.

| SMILES | IC50 |
| --- | --- |
| CC(C)(CC(=O)O)CN1C(=O)[C@@H]2Cc3c(n(Cc4ccc(F)cc4)c4ccccc34)CN2C1=O [Compound 1-42, (S)-4-(6-(4-fluorobenzyl)-1,3-dioxo-5,6,11,11a-tetrahydro-1H-imidazo[1′,5′:1,6]pyrido[3,4-b]indol-2(3H)-yl)-3,3-dimethylbutanoic acid] | < 0.5 µM |
| O=C(O)CCN1C(=O)C2Cc3c(n(Cc4ccc(F)cc4)c4ncccc34)CN2C1=O (single isomer, unassigned; enta) [C114 entA, 3-{8-[(4-fluorophenyl)methyl]-12,14-dioxo-6.8.11.13-tetraazatetracyclo[7.7.0.02, 7.011,15]hexadeca-1(9),2(7),3,5-tetraen-13-yl}propionic acid] | < 0.5 µM |
| CC1(C)c2c(n(Cc3ccc(F)cc3)c3ncccc23)CN2C(=O)N(CCC(=O)O)C(=O)C21 (centres unmarked) [Compound C11, 3-{8-[(p-fluorophenyl)methyl]-16,16-dimethyl-12,14-dioxo-6.8.11.13-tetrazatetracyclo[7.7.0.02,7.011,15]hexadeca-1(9),2(7),3,5-tetraene-13-yl}propionic acid] | < 0.5 µM |
| O=C(O)CCN1C(=O)[C@@H]2Cc3c(n(Cc4cnc(C(F)(F)F)s4)c4ccccc34)CN2C1=O [Compound 1-102, (S)-3-(1,3-dioxo-6-((2-(trifluoromethyl)thiazol-5-yl)methyl)-11,11a-dihydro-1H-imidazo[1′,5′:1,6]pyrido[3,4-b]indol-2(3H,5H,6H)-yl)propanoic acid] | < 0.5 µM |
| O=C(O)CCN1C(=O)[C@@H]2Cc3c(n(Cc4ccc(F)cc4F)c4ccccc34)CN2C1=O [Compound 1-134, (S)-3-(6-(2,4-difluorobenzyl)-1,3-dioxo-11,11a-dihydro-1H-imidazo[1′,5′:1,6]pyrido[3,4-b]indol-2(3H,5H,6H)-yl)propanoic acid] | < 0.5 µM |
| COc1ccc(Cn2c3c(c4ccccc42)C[C@H]2C(=O)N(CCC(=O)O)C(=O)N2C3)cn1 [Compound 1-12, (S)-3-(6-((6-methoxypyridin-3-yl)methyl)-1,3-dioxo-11,11a-dihydro-1H-imidazo[1′,5′:1,6]pyrido[3,4-b]indol-2(3H,5H,6H)-yl)propanoic acid] | < 0.5 µM |
| CC(C)(CN1C(=O)C2Cc3c(n(Cc4ccc(F)cc4)c4ncccc34)CN2C1=O)C(=O)O (centres unmarked) [Compound C111, 3-{8-[(p-fluorophenyl)methyl]-12,14-dioxo-6.8.11.13-tetrazatetracyclo[7.7.0.02,7.011,15]hexadeca-1(9),2(7),3,5-tetraene-13-yl}-2,2-dimethyl propionic acid] | < 0.5 µM |
| COc1ccc(Cn2c3c(c4ccccc42)C[C@H]2C(=O)N(CCC(=O)O)C(=O)N2C3)cc1 [Compound 1-131, (S)-3-(6-(4-methoxybenzyl)-1,3-dioxo-11,11a-dihydro-1H-imidazo[1′,5′:1,6]pyrido[3,4-b]indol-2(3H,5H,6H)-yl)propanoic acid] | < 0.5 µM |
| O=C(CCN1C(=O)[C@@H]2Cc3c(n(Cc4ccc(F)cc4)c4ccccc34)CN2C1=O)NS(=O)(=O)c1ccccc1 [Compound 1-143, (S)-3-(6-(4-fluorobenzyl)-1,3-dioxo-11,11a-dihydro-1H-imidazo[1′,5′:1,6]pyrido[3,4-b]indol-2(3H,5H,6H)-yl)-N-(phenylsulfonyl)propanamide] | < 0.5 µM |
| CC1(C)c2c(n(Cc3ccc(F)cc3)c3ccccc23)CN2C(=O)NC(=O)C21 (single isomer, unassigned) [A110 ent B, 6-(4-fluorobenzyl)-11,11-dimethyl-5,6,11,11a-tetrahydro-1H-imidazo[1′,5′:1,6]pyrido[3,4-b]indole-1,3(2H)-dione] | < 0.5 µM |
| O=C1NC(=O)N2Cc3c(c4cccnc4n3Cc3ccc(F)cc3)CC12 (centres unmarked) [Compound C109] | < 0.5 µM |
| O=C(O)CCN1C(=O)[C@@H]2Cc3c(n(Cc4ccc(Cl)cc4Cl)c4ccccc34)CN2C1=O [Compound 1-132, (S)-3-(6-(2,4-dichlorobenzyl)-1,3-dioxo-11,11a-dihydro-1H-imidazo[1′,5′:1,6]pyrido[3,4-b]indol-2(3H,5H,6H)-yl)propanoic acid] | < 0.5 µM |
| CS(=O)(=O)NC(=O)CCN1C(=O)[C@@H]2Cc3c(n(Cc4ccc(F)cc4)c4ccccc34)CN2C1=O [Compound 1-142, (S)-3-(6-(4-fluorobenzyl)-1,3-dioxo-11,11a-dihydro-1H-imidazo[1′,5′:1,6]pyrido[3,4-b]indol-2(3H,5H,6H)-yl)-N-(methylsulfonyl)propanamide] | < 0.5 µM |
| CC(C)(CCN1C(=O)[C@@H]2Cc3c(n(Cc4ccc(F)cc4)c4ccccc34)CN2C1=O)C(=O)O [Compound 1-39, (S)-4-(6-(4-fluorobenzyl)-1,3-dioxo-5,6,11,11a-tetrahydro-1H-imidazo[1′,5′:1,6]pyrido[3,4-b]indol-2(3H)-yl)-2,2-dimethylbutanoic acid] | < 0.5 µM |
| COc1ccc(Cn2c3c(c4ccccc42)C[C@H]2C(=O)N(CCCC(=O)O)C(=O)N2C3)cn1 [Compound 1-11, (S)-4-(6-((6-methoxypyridin-3-yl)methyl)-1,3-dioxo-11,11a-dihydro-1H-imidazo[1′,5′:1,6]pyrido[3,4-b]indol-2(3H,5H,6H)-yl)butanoic acid] | < 0.5 µM |
| CC1(C)c2c(n(Cc3ccc(F)cc3)c3ccccc23)CN2C(=O)NC(=O)C21 (single isomer, unassigned) [A110 ent A, 6-(4-fluorobenzyl)-11,11-dimethyl-5,6,11,11a-tetrahydro-1H-imidazo[1′,5′:1,6]pyrido[3,4-b]indole-1,3(2H)-dione] | < 0.5 µM |
| O=C(O)CCN1C(=O)C2Cc3c(n(Cc4ccc(F)cc4)c4ncccc34)CN2C1=O (centres unmarked) [Compound C114, 3-{8-[(4-fluorophenyl)methyl]-12,14-dioxo-6.8.11.13-tetraazatetracyclo[7.7.0.02, 7.011,15]hexadeca-1(9),2(7),3,5-tetraen-13-yl}propionic acid] | < 0.5 µM |
| COc1ccc(Cn2c3c(c4ccccc42)C[C@H]2C(=O)N(CC4(C(=O)O)CC4)C(=O)N2C3)cn1 [Compound 1-18, (S)-1-((6-((6-methoxypyridin-3-yl)methyl)-1,3-dioxo-5,6,11,11a-tetrahydro-1H-imidazo[1′,5′:1,6]pyrido[3,4-b]indol-2(3H)-yl)methyl)cyclopropane-1-carboxylic acid] | < 0.5 µM |

Continued, values first:

| IC50 | SMILES |
| --- | --- |
| < 0.5 µM | O=C(O)CCN1CC(=O)N2Cc3c(c4ccccc4n3Cc3ccc(F)cc3)CC2C1=O (centres unmarked) [Compound 1-24, 3-(7-(4-fluorobenzyl)-1,4-dioxo-3,4,6,7,12,12a-hexahydropyrazino[1′,2′:1,6]pyrido[3,4-b]indol-2(1H)-yl)propanoic acid] |
| < 0.5 µM | CN1CC2Cc3c(n(Cc4ccc(F)cc4)c4ccccc34)CN2C1=O (racemic) [Compound 1-14, 6-(4-fluorobenzyl)-2-methyl-5,6,11,11a-tetrahydro-1H-imidazo[1′,5′:1,6]pyrido[3,4-b]indol-3(2H)-one] |
| < 0.5 µM | O=C1OC[C@@H]2Cc3c(n(Cc4ccc(F)cc4)c4ccccc34)CN12 [Compound 1-9, (S)-6-(4-fluorobenzyl)-5,6,11,11a-tetrahydrooxazolo[3′,4′:1,6]pyrido[3,4-b]indol-3(1H)-one] |
| < 0.5 µM | O=C1NCC2Cc3c(n(Cc4ccc(F)cc4)c4ccccc34)CN12 (racemic) [Compound 1-13, 6-(4-fluorobenzyl)-5,6,11,11a-tetrahydro-1H-imidazo[1′,5′:1,6]pyrido[3,4-b]indol-3(2H)-one] |
| < 0.5 µM | O=C1OCC2Cc3c(n(Cc4ccc(F)cc4)c4ccccc34)CN12 (centres unmarked) [Compound 1-8, 6-(4-fluorobenzyl)-5,6,11,11a-tetrahydrooxazolo[3′,4′:1,6]pyrido[3,4-b]indol-3(1H)-one] |
| < 0.5 µM | O=C1NCC(=O)N2Cc3c(c4ccccc4n3Cc3ccc(F)cc3)CC12 (racemic) [Compound 1-16, 7-(4-fluorobenzyl)-2,3,6,7,12,12a-hexahydropyrazino[1′,2′:1,6]pyrido[3,4-b]indole-1,4-dione] |
| < 0.5 µM | CN1C(=O)C2Cc3c(n(Cc4ccc(F)cc4)c4ccccc34)CN2C1=O (racemic) [Compound 1-129, 6-(4-fluorobenzyl)-2-methyl-5,6,11,11a-tetrahydro-1H-imidazo[1′,5′:1,6]pyrido[3,4-b]indole-1,3(2H)-dione] |
| > 1 µM | O=C(O)CCN1C(=O)[C@@H]2Cc3c(n(Cc4ccc(F)cc4)c4ccccc34)CN2C1=S [Compound E1, (S)-3-(6-(4-fluorobenzyl)-1-oxo-3-thioxo-5,6,11,11a-tetrahydro-1H-imidazo[1′,5′:1,6]pyrido[3,4-b]indol-2(3H)-yl)propanoic acid] |
| < 0.5 µM | O=C1C2Cc3c(n(Cc4ccc(F)cc4)c4ccccc34)CN2C(=O)N1Cc1nn[nH]n1 (racemic) [Compound 1-140, 2-((2H-tetrazol-5-yl)methyl)-6-(4-fluorobenzyl)-5,6,11,11a-tetrahydro-1H-imidazo[1′,5′:1,6]pyrido[3,4-b]indole-1,3(2H)-dione] |
| > 1 µM | O=C1OC[C@H]2Cc3c(n(Cc4ccc(F)cc4)c4ccccc34)CN12 [Compound 1-10, (R)-6-(4-fluorobenzyl)-5,6,11,11a-tetrahydrooxazolo[3′,4′:1,6]pyrido[3,4-b]indol-3(1H)-one] |
| < 0.5 µM | O=C1C2Cc3c(n(Cc4ccc(F)cc4)c4ccccc34)CN2C(=O)N1CCO (centres unmarked) [Compound 1-121, 6-(4-fluorobenzyl)-2-(2-hydroxyethyl)-5,6,11,11a-tetrahydro-1H-imidazo[1′,5′:1,6]pyrido[3,4-b]indole-1,3(2H)-dione] |
